According to US7507421B2, “Hydroxycitric acid salt composition and method of making” (Unibar Corporation, priority 2002, dated 2009):

What was measured:
Solubility in water = type: physicochemical; details: deionized water at room temperature
Experimental: The resultant solution was spray dried to yield a salt of hydroxycitric acid with the following analysis: potassium content 11% to 18%, calcium content 5% to 12%, structural moisture 3% to 5% and hydroxycitric acid content 70% to 76%. The sodium content was less than 0.5% and lactone less than 0.5%. […] This salt composition is tasteless and white in color. A solution of 5 g in 100 ml of de-ionized sterile water was subjected to an accelerated storage study chamber for 2 months.

[1] = Accelerated storage study of aqueous solution; type: physicochemical; details: 5 g in 100 ml de-ionized sterile water, accelerated storage study chamber, 2 months
Experimental: 50 g equivalent of the hydroxy citric acid—potassium salt solution from Example 2 was taken into a glass beaker fitted with a stirring arrangement. To this solution, 43 g of the dried calcium salt from Example 1 was added and the mixture was stirred to yield a clear solution. The resultant solution was spray dried to yield a salt of hydroxycitric acid with the following analysis: potassium content 11% to 18%, calcium content 5% to 12%, structural moisture 3% to 5% and hydroxycitric acid content 70% to 76%. The sodium content was less than 0.5% and lactone less than 0.5%. The combined salt has a solubility of 5 g in 100 mL of deionized water at room temperature. This salt composition is tasteless and white in color. A solution of 5 g in 100 ml of de-ionized sterile water was subjected to an accelerated storage study chamber for 2 months.

adult female Wistar rats [2] = assay: Acute Oral Toxicity (OECD Test Guideline 425), LD50; type: in vivo; set-up: key to Short-term Result / Long-term Result: X = Died; ◯ = Survived; details: for LD50: oral, female Wistar rats
Experimental: A representative lot of powder obtained as described above is a pure, stable calcium potassium salt of hydroxycitric acid having a proximate analysis of 70 to 75% hydroxycitric acid, 7.5% to 9.5% calcium, 12 to 15% potassium and 3 to 5% structural moisture. The sodium content is less than 0.5%, and HCA lactone content is less than 0.5%. An animal toxicity study was conducted on the product to establish its LD50.
Doses were selected in accordance with the Acute Oral Toxicity (OECD Test Guideline 425) Statistical Program as follows: 175, 550, 1750, 5000 mg/kg of body weight in adult female Wistar rats.

adult female Wistar rats [3] = assay: as above; type: in vivo; set-up: key: X = Died; ◯ = Survived; details: dose 2000 mg/kg, single animal
[4] = dose 5000 mg/kg, one line per animal

## Combined Potassium-Calcium Salts of Hydroxycitric Acid [Example 3]
Solubility in water
  solubility: 5 g in 100 mL
[1]
  clarity of solution after storage: retained its clarity
  precipitation of salt after storage of solution: did not precipitate out
Adult female Wistar rats [2]; All Doses, total 6
  Died (long-term, number of animals): 0
  Survived (long-term, number of animals): 6
Adult female Wistar rats [2]; dose 175 mg/kg, single animal
  Long-term Result: ◯
  Short-term Result: ◯
Adult female Wistar rats [2]; dose 175 mg/kg, total 1
  Died (long-term, number of animals): 0
  Survived (long-term, number of animals): 1
Adult female Wistar rats [2]; dose 550 mg/kg, single animal
  Long-term Result: ◯
  Short-term Result: ◯
Adult female Wistar rats [2]; dose 550 mg/kg, total 1
  Died (long-term, number of animals): 0
  Survived (long-term, number of animals): 1
Adult female Wistar rats [2]; dose 2000 mg/kg, total 1
  Died (long-term, number of animals): 0
  Survived (long-term, number of animals): 1
Adult female Wistar rats [2]; [4]
  Long-term Result: ◯
  Short-term Result: ◯
Adult female Wistar rats [2]; dose 5000 mg/kg, total 3
  Died (long-term, number of animals): 0
  Survived (long-term, number of animals): 3
Adult female Wistar rats [2]
  LD50: more than 5 gm/kg
Adult female Wistar rats [2]; conclusion of Table 8
  LD50: Conclusion: LD50 of a sample of the Test Compound was found to be greater than 5000 mg/kg.
Adult female Wistar rats [3]
  Long-term Result: ◯
  Short-term Result: ◯
